Literature values in publication PMC11693862 (Acta Biochimica et Biophysica Sinica, 2024).

Key:
[1] = tested on: Mpros of HCoV-NL63, HCoV-HUK1, MERS-CoV, and SARS-CoV; conditions: cited from earlier work
SARS-CoV and HCoV-229E = conditions: cited from earlier work
[2] = in vivo; cited from earlier work

For `COc1cccc2[nH]c(C(=O)NC(CC(C)C)C(=O)NC(CC3CCNC3=O)C(=O)CO)cc12` (stereo not drawn) [PF-00835231], the “Inhibition of Mpros of HCoV-NL63, HCoV-HUK1, MERS-CoV, and SARS-CoV” value [1] is listed as “inhibits”, the “Antiviral activity, semi-maximum effective concentration (EC50)” value (SARS-CoV and HCoV-229E) is listed as “very low” and the Oral bio-availability [2] is listed as “relatively poor”.
